From ChEMBL document CHEMBL3045621, “Synthesis and Structure-activity Relationships of Herbicidal Thiophene Sulfonylurea Compounds” (J Pestic Sci, 1997)

Tests used:
[1] = test system: Sagittaria pygmaea; assay: Herbicidal activity against Sagittaria pygmaea assessed as dose required to cause sufficient herbicidal activity after 5 to 7 days; format: functional
[2] = test system: Echinochloa oryzicola; assay: Herbicidal activity against Echinochloa oryzicola assessed as dose required to cause sufficient herbicidal activity; format: functional
[3] = test system: Schoenoplectiella juncoides; assay: Herbicidal activity against Schoenoplectiella juncoides assessed as dose required to cause sufficient herbicidal activity after 5 to 7 days; format: functional
[4] = test system: Oryza sativa; assay: Toxicity in two leaf stage of Oryza sativa var. Nihonbare (rice) assessed as dose required to selectivity to Oryza sativa; format: organism-based; details: in vivo

**Q.** How did the MED [1] turn out when CNC(=O)NCc1ccsc1S(=O)(=O)NC(=O)Nc1nc(OC)cc(OC)n1 was run?
**A.** 10 g/acre

**Q.** And the MED [2]?
**A.** 10 g/acre

**Q.** And the MED [3]?
**A.** 20 g/acre

**Q.** And the MED [4]?
**A.** 2.5 g/acre
